Source: PMC11017246, “Discovery of GLPG2737, a Potent Type 2 Corrector of CFTR for the Treatment of Cystic Fibrosis in Combination with a Potentiator and a Type 1 Co-corrector” (Journal of Medicinal Chemistry, 2024)
Where two headings read alike, the source gives them in different places.

Legend:
ΔF508 CFTR [1] = biological target: T1, ΔF508 CFTR (Homo sapiens, UniProt P13569, DEL508-508); experiment: CSE-HRP: cell surface expression horseradish peroxidase assay in CFBE41o- cells; assay type: cell-based; conditions: for Emax: CFBE41o-
T1 construct: host or cells: CFBE41o- TetON cells, expression induced with doxycycline
T1 sequence (P13569 with tags, fused parts or gaps DEL508-508): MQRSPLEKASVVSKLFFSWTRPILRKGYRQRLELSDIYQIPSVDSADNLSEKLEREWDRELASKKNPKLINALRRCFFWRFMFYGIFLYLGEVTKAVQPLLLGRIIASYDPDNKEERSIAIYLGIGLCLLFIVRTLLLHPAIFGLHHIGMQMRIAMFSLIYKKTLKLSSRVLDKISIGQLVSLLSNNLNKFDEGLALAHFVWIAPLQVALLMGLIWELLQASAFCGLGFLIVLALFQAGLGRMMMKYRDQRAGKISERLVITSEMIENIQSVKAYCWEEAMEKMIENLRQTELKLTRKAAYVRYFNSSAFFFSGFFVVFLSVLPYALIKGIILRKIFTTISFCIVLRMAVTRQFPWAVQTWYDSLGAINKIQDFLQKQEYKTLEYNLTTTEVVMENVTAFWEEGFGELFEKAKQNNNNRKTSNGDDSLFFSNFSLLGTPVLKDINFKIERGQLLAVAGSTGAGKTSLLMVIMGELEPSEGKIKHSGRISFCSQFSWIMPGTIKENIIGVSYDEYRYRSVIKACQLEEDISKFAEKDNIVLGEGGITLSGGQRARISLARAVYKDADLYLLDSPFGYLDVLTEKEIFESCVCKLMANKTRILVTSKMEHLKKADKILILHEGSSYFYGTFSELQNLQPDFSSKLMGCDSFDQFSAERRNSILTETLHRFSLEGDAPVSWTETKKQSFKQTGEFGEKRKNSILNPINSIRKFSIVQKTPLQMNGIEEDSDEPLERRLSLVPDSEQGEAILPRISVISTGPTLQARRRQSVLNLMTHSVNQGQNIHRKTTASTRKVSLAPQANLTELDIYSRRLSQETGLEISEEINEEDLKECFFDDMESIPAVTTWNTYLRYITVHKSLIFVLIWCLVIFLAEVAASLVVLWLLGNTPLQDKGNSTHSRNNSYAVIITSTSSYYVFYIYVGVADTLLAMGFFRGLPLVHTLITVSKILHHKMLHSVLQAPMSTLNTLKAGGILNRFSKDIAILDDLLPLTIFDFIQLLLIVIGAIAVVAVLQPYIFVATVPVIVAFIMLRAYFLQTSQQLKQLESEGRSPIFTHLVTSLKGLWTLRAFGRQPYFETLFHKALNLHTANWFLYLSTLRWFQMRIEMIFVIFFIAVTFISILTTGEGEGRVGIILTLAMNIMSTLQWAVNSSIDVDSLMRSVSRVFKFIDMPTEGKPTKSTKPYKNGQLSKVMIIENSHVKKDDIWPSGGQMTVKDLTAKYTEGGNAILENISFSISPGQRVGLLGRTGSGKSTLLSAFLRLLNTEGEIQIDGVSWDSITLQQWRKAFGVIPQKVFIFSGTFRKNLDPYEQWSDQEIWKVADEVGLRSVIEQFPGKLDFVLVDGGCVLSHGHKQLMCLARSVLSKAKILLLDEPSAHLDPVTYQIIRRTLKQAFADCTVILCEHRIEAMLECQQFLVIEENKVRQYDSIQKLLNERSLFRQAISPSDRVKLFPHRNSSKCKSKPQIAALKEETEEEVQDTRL
Procedure: A CFBE41o– cell line stably expressing ΔF508 CFTR harboring an HRP-tag in the fourth extracellular loop was obtained from Professor Gergely Lukacs (Department of Physiology, McGill University, Montreal, QC, Canada).[25] Cells were grown in Eagle’s minimal essential medium (Life Technologies) supplemented with 10% FBS, 1% L-glutamine (Life Technologies), 10 mM HEPES (Life Technologies), 200 μg/mL Geneticin (Life Technologies), and 3 μg/mL puromycin (Sigma) in culture flasks coated with 0.01% bovine serum albumin (BSA) (Sigma), 30 μg/mL Purecol (Nutacon), and 0.001% human fibronectin (Sigma).
CFBE41o– TetON cells expressing HRP tagged ΔF508-CFTR were seeded in white 384-well plates (Greiner) at a density of 2000 cells per well. Medium containing 500 ng/mL doxycycline was used to induce expression of ΔF508-CFTR-HRP. After 3 days, cells were treated with corrector or potentiator compounds and transferred to an incubator at 33 °C. On day 4, cells were washed five times with PBS containing Ca^2+ and Mg^2+ using a Bio-Tek plate washer and incubated with a chemiluminescent HRP substrate (SuperSignal West Pico Chemiluminescent Substrate, Thermo Scientific) for 15 min. Chemiluminescence was measured using an Envision plate reader (PerkinElmer). Dose response data was fitted using a 4 parameter hill function of the form Response = neg control + (pos control – neg control)/(1 + 10^(log EC50-concentration)/HillSlope) to determine EC50 values. Percentage efficacy was calculated using the following formula: (max response – neg control)/(C1 response – neg control).

PK rat = assay type: in vivo
Procedure: These studies were performed with naïve male Sprague–Dawley rats (Janvier France, 6–8 weeks old). Rats were dosed iv via a bolus in the tail vein with a dose level of 0.1 mg/kg or orally as a single esophageal gavage with a dose level of 5 mg/kg. For the iv route, the compound was formulated in PEG200/water (60/40; v/v). For the oral route, the compound was formulated in MC 0.5% (2/98) as a homogeneous suspension. Before the oral dosing, the animals were deprived of food for at least 12 h before compound administration until 3 h after administration. All animals had free access to the tap water. Blood samples were collected under light anesthesia and placed into tubes containing Li-heparin as an anticoagulant. Blood samples were collected up to 24 h after dosing (n = 3 rats per route). After centrifugation, the resulting plasma samples were assayed by LC-MS/MS with a nongood laboratory practice (non-GLP)-validated method. PK parameters were calculated by noncompartmental analysis using WinNonlin software (Certara, Princeton, NJ, USA).

[2] = Plasma protein binding, human; assay type: in vitro ADME; conditions: human, plasma, pH 7.4, human plasma; read-out: PPB % human (converted)
Procedure: (§1) Plasma protein binding was determined by equilibrium dialysis using the Pierce Red Device plate with inserts (ThermoScientific). Test compound at 5 μM (0.5% DMSO) spiked in freshly thawed human, rat, mouse, or dog plasma (Bioreclamation INC, Westbury, NY, USA) was dialyzed against phosphate-buffered saline (PBS, pH 7.4) at 37 °C under shaking for 4 h. Aliquots were taken from each side of the well, and matrix matched. Proteins were precipitated with an excess of acetonitrile, samples were mixed and centrifuged, and the supernatant was analyzed by liquid chromatography–mass spectrometry/mass spectrometry (LC–MS/MS). Addition of compound peak areas in the buffer chamber and the plasma chamber was considered to be 100% compound.

[3] = Plasma protein binding, rat; assay type: in vitro ADME; conditions: pH 7.4, read-out: PPB % rat (converted)
Procedure: as §1

ΔF508 CFTR [4] = biological target: T1, ΔF508 CFTR; experiment: TECC (transepithelial clamp circuit) in primary CF-derived HBE cells; assay type: cell-based; conditions: for Emax: read-out: TECC HBE with GLPG2222 % max activation
Procedure: Bronchial epithelial cells isolated from the lungs of patients with CF homozygous for the ΔF508 CFTR mutation were obtained from McGill University (Montreal, QC, Canada) or the University of North Carolina (Chapel Hill, NC, United States). Cells were isolated from lungs obtained from donors undergoing planned transplantation. These primary cells were cultured directly on type IV collagen-coated polycarbonate Transwell supports with a diameter of 6.5 mm and pore size of 0.4 μm (Costar, #3397) for 18–25 days in an air–liquid interface, essentially as previously described for TECC.[23]
Twenty-four hours prior to the electrophysiological recording, corrector and/or potentiator compounds were added on both the apical and basolateral sides. TECC recordings were performed by using the TECC instrument developed and sold by EP Design (Bertem, Belgium). During the recording, the epithelial cells were bathed in a NaCl-Ringer solution (120 mM NaCl, 20 mM HEPES, 1.2 mM CaCl2, 1.2 mM MgCl2, 0.8 mM KH2PO4, 0.8 mM K2HPO4, 5 mM glucose, pH 7.4) on both the basolateral (640 μL) and the apical (160 μL) sides and kept at 37 °C. Corrector and potentiator compounds were readded at the same concentration used during the 24 h pretreatment. Apical amiloride was used to inhibit the endogenous ENaC currents (100 μM), while forskolin (10 μM) was applied on both the apical and basolateral sides to stimulate CFTR. Measurements were done during a 20 min time frame with recordings every 2 min. The transepithelial potential and transepithelial resistance were measured in an open circuit and transformed to Ieq using Ohm’s law. The maximal increase in Ieq (ΔIeq, the difference in current before and after forskolin or potentiator treatment) was used as a measure for the increased CFTR activity. EC50 values were generated by measuring the impact of different concentrations of compounds on ΔIeq in primary cells. For this purpose, each transwell was treated with a different compound concentration. CFTRInh-172 was added apically at 10 μM to assess the specificity of the response. Dose response data was fitted using a 3-parameter hill function of the form Response = Bottom + (Top – Bottom)/(1 + (EC50/concentration)) to determine EC50 values. Percentage efficacy was calculated using the following formula: (max response – neg control)/(C1 response – neg control).

[5] = Hepatocyte stability, rat; assay type: in vitro ADME; conditions: pooled cryopreserved hepatocytes in suspension, read-out: Hep CLint,u rat (converted)
Procedure: The hepatocyte stability assay was performed by incubation of test compound at 1 μM, 0.03% DMSO in modified Krebs–Henseleit buffer with suspension of pooled cryopreserved hepatocytes (BioIVT, Hicksville, NY, USA) from mouse, rat, dog, or human (BioIVT, Hicksville, NY, USA) at 0.5 million viable hepatocytes/mL. Before adding the hepatocytes (time zero) and after 10, 20, 45, 90, 120, and 180 min of incubation (n = 2) at 37 °C while gently shaking, the reaction was stopped and proteins were precipitated with an excess of acetonitrile containing an internal standard. The samples were mixed, centrifuged, and filtered, and the supernatant was analyzed by liquid chromatography–mass spectrometry/mass spectrometry (LC–MS/MS). The instrument responses (peak areas/IS peak areas) were referenced to the zero-time point samples (considered as 100%) in order to determine the percentage of compound remaining.

[6] = no additional corrector, relative to lumacaftor or 5 (3 μM) positive control, read-out: CSE-HRP % max activation
[7] = no additional corrector, 24 h incubation, 33 °C, geometric mean, read-out: CSE-HRP EC50
[8] = in the presence of C1 corrector 5, relative to 5 (3 μM) positive control, read-out: CSE-HRP with 5 % max activation
[9] = in the presence of C1 corrector 5, read-out: CSE-HRP with 5 EC50

Emax (ΔF508 CFTR [1]; [6]) [%] | EC50 (ΔF508 CFTR [1]; [7]) [µM] | further results | Compound
-2 | 10 |  | Cc1nn(C2CCN(C)CC2)c2nc(C(=O)O)cc(-c3ccc(N4CCOCC4)cc3)c12 [Compound 14]
116 | 1.27 |  | O=C(O)c1cc(-c2ccc(N3CCOCC3)cc2)c2cnn(-c3ccccc3)c2n1 [Compound 15]
184 | 0.448 |  | CC(C)c1nn(-c2ccccc2)c2nc(C(=O)O)cc(-c3ccc(N4CCOCC4)cc3)c12 [Compound 16]
 |  | clearance (PK rat; male, Sprague-Dawley, plasma, 1 mg/kg, iv dosing, read-out: plasma clearance (converted)): 3.33 mL/min/kg; clearance (PK rat; male, Sprague-Dawley, plasma, iv, 0.1 mg/kg, formula-strings file, unit inferred, read-out: Cl (converted)): 3.33 mL/min/kg; Vd (PK rat; male, Sprague-Dawley, plasma, iv, 0.1 mg/kg, formula-strings file, unit inferred, read-out: Vss): 0.474 L/kg; Vd (PK rat; male, Sprague-Dawley, plasma, iv, 1 mg/kg, 1 mg/kg iv, read-out: Vss): 0.474 L/kg; fraction unbound at 4 h, 5 μM [2]: 0.01 | O=C(O)c1cc(-c2ccc(N3CCOCC3)cc2)c2c(C3CCC3)nn(-c3ccccc3)c2n1 [Compound 18]
175 | 2.12 |  | COCCNc1ccc(-c2cc(C(=O)O)nc3c2c(C)nn3-c2ccccc2)cc1 [Compound 24]
204 | 1.49 |  | COCCN(C)c1ccc(-c2cc(C(=O)O)nc3c2c(C)nn3-c2ccccc2)cc1 [Compound 25]
8.2 | 10 |  | CC(=O)c1cc(-c2ccc(N3CCOCC3)cc2)c2c(C)nn(-c3ccccc3)c2n1 [Compound 29]
15 | 10 |  | Cc1nn(-c2ccccc2)c2nc(CO)cc(-c3ccc(N4CCOCC4)cc3)c12 [Compound 30]
8.8 | 10 |  | Cc1nn(-c2ccccc2)c2nc(C(C)O)cc(-c3ccc(N4CCOCC4)cc3)c12 (centres unmarked) [Compound 31]
5 | 10 |  | Cc1nn(-c2ccccc2)c2nc(C(C)(C)O)cc(-c3ccc(N4CCOCC4)cc3)c12 [Compound 32]
7 | 10 |  | Cc1nn(-c2ccccc2)c2nc(C(=O)NCC(F)(F)F)cc(-c3ccc(N4CCOCC4)cc3)c12 [Compound 33]
4 | 10 |  | COc1cc(-c2cc(-c3ccc(N4CCOCC4)cc3)c3c(C)nn(-c4ccccc4)c3n2)n[nH]1 [Compound 34]
24 | 10 |  | Cc1nn(-c2ccccc2)c2nc(CC(=O)O)cc(-c3ccc(N4CCOCC4)cc3)c12 [Compound 35]
96 | 2.98 |  | Cc1nn(-c2ccccc2)c2nc(C(=O)NC#N)cc(-c3ccc(N4CCOCC4)cc3)c12 [Compound 36]
 |  | fraction unbound at 4 h, 5 μM [2]: 0.0005 | CS(=O)(=O)NC(=O)c1cc(-c2ccc(N3CCOCC3)cc2)c2c(C3CCC3)nn(-c3ccccc3)c2n1 [Compound 39]
173 | 0.542 | Emax (ΔF508 CFTR [1]; [8]): 325%; EC50 (ΔF508 CFTR [1]; [9]): 0.448 µM | COCCN(C)c1ccc(-c2cc(C(=O)O)nc3c2c(C2CCC2)nn3-c2ccccc2)cc1 [Compound 40]
191 | 0.529 | Emax (ΔF508 CFTR [1]; [8]): 417%; EC50 (ΔF508 CFTR [1]; [9]): 0.483 µM | COCCN(C)c1ccc(-c2cc(C(=O)O)nc3c2c(C2CCC2)nn3-c2ccccc2)cn1 [Compound 42]
 |  | fraction unbound at 4 h, 5 μM [2]: < 0.001; fraction unbound at 4 h, 5 μM [3]: 0.001 | CS(=O)(=O)NC(=O)c1cc(N2CCCCC2)c2c(C3CCC3)nn(-c3ccccc3)c2n1 [Compound 46]
 |  | fraction unbound at 4 h, 5 μM [2]: 0.002; fraction unbound at 4 h, 5 μM [3]: 0.002 | COC1CCN(c2cc(C(=O)NS(C)(=O)=O)nc3c2c(C2CCC2)nn3-c2ccccc2)CC1 [Compound 47]
 |  | fraction unbound at 4 h, 5 μM [2]: 0.003; fraction unbound at 4 h, 5 μM [3]: 0.003; Emax (ΔF508 CFTR [4]; primary ΔF508 homozygous HBE cells, 24 h incubation, with GLPG2222): 265%; EC50 (ΔF508 CFTR [4]; primary ΔF508 homozygous HBE cells, 24 h incubation, with GLPG2222, read-out: TECC HBE with GLPG2222 EC50): 0.06 µM | CS(=O)(=O)NC(=O)c1cc(N2CCC(C#N)CC2)c2c(C3CCC3)nn(-c3ccccc3)c2n1 [Compound 48]
 |  | CLint scaled at 1 μM [5]: < 11.5 mL/min/kg; CLu rat (PK rat; iv, unbound clearance): 205 mL/min/kg; clearance (PK rat; male, Sprague-Dawley, plasma, 0.1 mg/kg, iv, read-out: CLp rat (converted)): 1.83 mL/min/kg; half-life (PK rat; male, Sprague-Dawley, plasma, 0.1 mg/kg, iv, read-out: t1/2 iv rat (converted)): 3.31 h; Vd (PK rat; male, Sprague-Dawley, plasma, iv, 0.1 mg/kg, iv, read-out: Vss rat): 0.47 L/kg; fraction unbound at 4 h, 5 μM [2]: 0.013; fraction unbound at 4 h, 5 μM [3]: 0.009; Emax (ΔF508 CFTR [4]; HBE, footnote b: after 24 h incubation a fixed 1 μM C2 corrector concentration was added during the recording): 410%; EC50 (ΔF508 CFTR [4]; footnote b: after 24 h incubation a fixed 1 μM C2 corrector concentration was added during the recording, read-out: TECC HBE with GLPG2222 EC50): 0.046 µM | CS(=O)(=O)NC(=O)c1cc(N2CCC(N3CCOCC3)CC2)c2c(C3CCC3)nn(-c3ccc(F)cc3)c2n1 [Compound 50]
 |  | fold (ΔF508 CFTR [4]; no C2 corrector (reference)): 1 fold; EC50 (ΔF508 CFTR [4]; no C2 corrector, C1 corrector GLPG2222 (4) 0.15 μM, read-out: EC50 of potentiator GLPG1837): 0.013 µM | CC1(C)Cc2c(sc(NC(=O)c3ccn[nH]3)c2C(N)=O)C(C)(C)O1 [GLPG1837, reference compound]
